According to ChEMBL document CHEMBL1201862, “PubChem BioAssay data set” (2004):
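These data come from cells grown in 96-well plates and exposed to compound for 48 hours at five concentrations. GI50: concentration for 50% inhibition of growth.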 Calls of active or inactive are those of the source. Cut-off read from the data, not from the text of the source: active = GI50 up to about 1.1 µM and inactive = higher.

Experiments:
Experiment in all cases: inhibition of tumour cell growth, NCI panel, 48 h
[1] = system: TK-10
[2] = system: IGROV-1
[3] = system: 786-0
[4] = system: SR
[5] = system: PC-3
[6] = system: RXF 393
[7] = system: SF-539
[8] = system: SK-MEL-5
[9] = system: NCI-H460
[10] = system: OVCAR-8
[11] = system: SW-620
[12] = system: MCF7
[13] = system: A549
[14] = system: U-251
[15] = system: SN12C
[16] = system: LOX IMVI
[17] = system: EKVX
[18] = system: HOP-62
[19] = system: Hs-578T
[20] = system: HCT-15
[21] = system: COLO 205
[22] = system: KM12
[23] = system: HCT-116
[24] = system: SF-295
[25] = system: RPMI-8226
[26] = system: OVCAR-4
[27] = system: NCI-H522
[28] = system: A498
[29] = system: DU-145
[30] = system: ACHN
[31] = system: SK-OV-3
[32] = system: NCI/ADR-RES
[33] = system: HT-29
[34] = system: UACC-257
[35] = system: K562
[36] = system: HCC 2998
[37] = system: NCI-H23
[38] = system: BT-549
[39] = system: M14
[40] = system: SF-268
[41] = system: UACC-62
[42] = system: OVCAR-3
[43] = system: CAKI-1
[44] = system: MOLT-4
[45] = system: CCRF-CEM
[46] = system: UO-31
[47] = system: MDA-N
[48] = system: OVCAR-5
[49] = system: SK-MEL-28
[50] = system: HOP-92
[51] = system: MDA-MB-435
[52] = system: Malme-3M
[53] = system: HL-60
[54] = system: SK-MEL-2
[55] = system: MDA-MB-231
[56] = system: SNB-19
[57] = system: T47D
[58] = system: NCI-H226
[59] = system: SNB-75

With `Cc1ccc(S(=O)(=O)N2CCN(CCN(C)CCN3CCN(S(=O)(=O)c4ccc(C)cc4)CC3)CC2)cc1` the GI50 [1] was 16.1 µM (inactive), the GI50 [2] was 16.3 µM (inactive) and the GI50 [3] was 19.4 µM (inactive). For the same molecule, the GI50 [4] was 18.5 µM (inactive), the GI50 [5] was 20.7 µM (inactive) and the GI50 [6] was 14.3 µM (inactive). The GI50 [7] was 16.4 µM (inactive), the GI50 [8] was 16.3 µM (inactive) and the GI50 [9] was 17.5 µM (inactive). The GI50 [10] was 17.4 µM (inactive), the GI50 [11] was 16.9 µM (inactive) and the GI50 [12] was 17.7 µM (inactive). For the same molecule, the GI50 [13] was 23.3 µM (inactive), the GI50 [14] was 17.3 µM (inactive) and the GI50 [15] was 18.5 µM (inactive). The GI50 [16] was 17.2 µM (inactive), the GI50 [17] was 22.5 µM (inactive) and the GI50 [18] was 17.8 µM (inactive). The GI50 [19] was 22.3 µM (inactive), the GI50 [20] was 17.6 µM and the GI50 [21] was 18.2 µM (inactive). For the same molecule, the GI50 [22] was 15.1 µM (inactive), the GI50 [23] was 17 µM (inactive) and the GI50 [24] was 17.9 µM (inactive). For the same molecule, the GI50 [25] was 16.6 µM (inactive), the GI50 [26] was 19.5 µM (inactive) and the GI50 [27] was 19.8 µM (inactive). For the same molecule, the GI50 [28] was 16.4 µM (inactive), the GI50 [29] was 16 µM (inactive) and the GI50 [30] was 17.9 µM (inactive). For the same molecule, the GI50 [31] was 18.4 µM (inactive), the GI50 [32] was 20 µM (inactive) and the GI50 [33] was 14.5 µM (inactive). For the same molecule, the GI50 [34] was 16.4 µM (inactive), the GI50 [35] was 15 µM (inactive) and the GI50 [36] was 15.9 µM (inactive). For the same molecule, the GI50 [37] was 22.6 µM (inactive), the GI50 [38] was 16.9 µM (inactive) and the GI50 [39] was 17.2 µM (inactive). For the same molecule, the GI50 [40] was 17.2 µM (inactive), the GI50 [41] was 17.9 µM (inactive) and the GI50 [42] was 16.7 µM (inactive). The GI50 [43] was 19.4 µM (inactive), the GI50 [44] was 14.1 µM (inactive) and the GI50 [45] was 18.7 µM (inactive). The GI50 [46] was 13.9 µM (inactive), the GI50 [47] was 18.9 µM (inactive) and the GI50 [48] was 28.5 µM (inactive). The GI50 [49] was 17.1 µM (inactive), the GI50 [50] was 17.7 µM (inactive) and the GI50 [51] was 17.7 µM (inactive). For the same molecule, the GI50 [52] was 18.6 µM (inactive), the GI50 [53] was 16.1 µM (inactive) and the GI50 [54] was 18.8 µM (inactive). The GI50 [55] was 20.6 µM (inactive), the GI50 [56] was 26.2 µM (inactive) and the GI50 [57] was 19.3 µM (inactive). For the same molecule, the GI50 [58] was 25.7 µM (inactive).
With `CN1CCN(CCCNN)CC1` the GI50 [1] was > 100 µM (inactive), the GI50 [2] was > 100 µM (inactive) and the GI50 [3] was > 100 µM (inactive). The GI50 [4] was 0.0327 µM (active), the GI50 [5] was > 100 µM (inactive) and the GI50 [6] was > 100 µM (inactive). The GI50 [7] was > 100 µM (inactive), the GI50 [8] was > 100 µM (inactive) and the GI50 [9] was > 100 µM (inactive). For the same molecule, the GI50 [10] was > 100 µM (inactive), the GI50 [11] was > 100 µM (inactive) and the GI50 [12] was > 100 µM (inactive). The GI50 [13] was > 100 µM (inactive), the GI50 [14] was > 100 µM (inactive) and the GI50 [15] was > 100 µM (inactive). The GI50 [16] was > 100 µM (inactive), the GI50 [17] was > 100 µM (inactive) and the GI50 [18] was > 100 µM (inactive). The GI50 [19] was > 100 µM (inactive), the GI50 [20] was > 100 µM and the GI50 [21] was > 100 µM (inactive). For the same molecule, the GI50 [22] was > 100 µM (inactive), the GI50 [23] was > 100 µM (inactive) and the GI50 [24] was > 100 µM (inactive). The GI50 [25] was 86.7 µM (inactive), the GI50 [26] was > 100 µM (inactive) and the GI50 [27] was > 100 µM (inactive). For the same molecule, the GI50 [28] was > 100 µM (inactive), the GI50 [29] was > 100 µM (inactive) and the GI50 [30] was > 100 µM (inactive). The GI50 [31] was > 100 µM (inactive), the GI50 [32] was > 100 µM (inactive) and the GI50 [33] was > 100 µM (inactive). The GI50 [34] was > 100 µM (inactive), the GI50 [35] was 1.87 µM (inactive) and the GI50 [36] was > 100 µM (inactive). The GI50 [37] was > 100 µM (inactive), the GI50 [38] was > 100 µM (inactive) and the GI50 [39] was > 100 µM (inactive). The GI50 [40] was > 100 µM (inactive), the GI50 [41] was > 100 µM (inactive) and the GI50 [42] was > 100 µM (inactive). For the same molecule, the GI50 [43] was > 100 µM (inactive), the GI50 [44] was 0.305 µM (active) and the GI50 [46] was > 100 µM (inactive). The GI50 [47] was > 100 µM (inactive), the GI50 [48] was > 100 µM (inactive) and the GI50 [49] was > 100 µM (inactive). The GI50 [50] was > 100 µM (inactive), the GI50 [51] was > 100 µM (inactive) and the GI50 [53] was 7.33 µM (inactive). For the same molecule, the GI50 [54] was > 100 µM (inactive), the GI50 [55] was > 100 µM (inactive) and the GI50 [56] was > 100 µM (inactive). For the same molecule, the GI50 [59] was > 100 µM (inactive), the GI50 [57] was > 100 µM (inactive) and the GI50 [58] was > 100 µM (inactive).
